The test system of one series is VX2 tumor. The series is described as follows: Oral administration of 3-BrPA in the VX2 liver tumor rabbit model. It is filed as in vivo, New Zealand White rabbits. The procedure:
New Zealand White rabbits were used in the study. All rabbits, carriers and recipients, were anesthetized with a mixture of acepromazine (2.5 mg/kg; Phoenix, St. Joseph, Mo.) and ketamine hydrochloride (44 mg/kg; Phoenix) administered intramuscularly. The VX2 tumor cell suspension was first injected into the hind legs of carrier rabbits and grown for 2 weeks. Resultant tumors were harvested from each carrier and a tumor suspension was prepared from each harvested tumor by dissection of viable tumor tissue and aseptic mincing.
For the rabbits that were going to receive the VX2 tumor implanted in the liver, intravenous access was gained via a marginal ear vein and 0.1-0.2 ml (2.5-5 mg) of sodium pentobarbital (Abbott Laboratories, Abbott Park, Ill.) was given periodically to maintain anesthesia. The abdomen of each recipient rabbit was shaved and disinfected with ethanol and povidine iodine. The liver of the rabbit was exposed by a midline incision, then an aliquot of the tumor cell suspension (0.2 ml) was injected directly using a 21-gauge angiocatheter into the left lobe of the liver in order to develop a solitary lesion with adequate surrounding liver parenchyma. The abdomen was closed in two layers. The tumor was allowed to grow in the rabbit livers for 7 days. Pain and distress levels were assessed by daily by monitoring food intake, feces and urine production and finally checking for signs of guarding or reluctance to move when touched.
Oral administration of 3-BrPA dissolved in PBS was examined using the VX2 tumor model, an animal model for hepatocellular carcinoma (described above). VX2 tumors were allowed to grow the livers of 12 New Zealand White rabbits for 10 days. Tumor bearing rabbits were divided in 4 groups. Group 1 (n=3) received 5 mg of 3-BrPA in 2.75 ml of Phosphate Buffered Saline (PBS) orally once a day, group 2 (n=3) received 10 mg of 3-BrPA in 2.75 ml of PBS orally once a day, group 3 (n=3) received 50 mg of 3-BrPA in 2.75 ml of PBS orally once a day and group 4 (control, n=3) received no treatment. Median survival for the animals in group 1 (n=3), receiving 5 mg of 3-BrPA in 2.75 ml of PBS, was 66 days. Animals in group 2 (n=3), receiving 10 mg of 3-BrPA in 2.75 ml of PBS, survived for 70 days. All the animals in group 3 (n=3), receiving 50 mg of 3-BrPA in 2.75 ml of PBS expired within 24 hours of oral administration of the first dose.
To test whether buffering 3-BrPA with NaHCO3 would allow oral administration of a higher dose of 3-BrPA, the maximum tolerated dose of orally administered 3-BrPA dissolved in NaHCO3 was determined. As in Example 1, the VX2 tumor model was used, with VX2 tumors grown in the livers of 12 New Zealand White rabbits for 10 days. Once again, the tumor bearing rabbits were divided in 4 groups. […] All animals in group 3 (n=3) expired within 24 hours after receiving 1000 mg of 3-BrPA in 2.75 ml of NaHCO3 orally.
The effect of pH on the survival of rabbits bearing VX2 liver tumors that were treated with the MTD of 3-BrPA buffered with NaHCO3 was examined. The VX2 tumor model was once again used, as described above. A total of 20 New Zealand White rabbits were included in the study. All rabbits received VX2 tumor implantation as described above. The tumor was allowed to grow in the rabbit livers for 7 days. Rabbits were divided in 4 groups. Group 1 (n=6) received 500 mg of 3-BrPA in 2.75 ml of NaHCO3 (1 M, resulting in pH 4), group 2 (n=2) received 500 mg of 3-BrPA in 2.75 ml of PBS (resulting in pH<2), group 3 (n=6) received 500 mg of 3-BrPA in 2.75 ml of NaHCO3 (2 M, resulting in pH 7) and group 4 (n=6) received no treatment (control group). All drugs were administered orally once a day.

The next series concerns H1299 cells. As to the kind of experiment: Trypan blue viability assay, H1299. In kind it is cell-based. The text has this:
The non-small cell lung cancer (NSCLC) cell line NCI-H1299, the breast cancer cell lines MCF7 and MDA MB 231 and the Hep3B, Hep2G and SK-Hep1 cells were obtained from the American Type Culture Collection (ATCC) (Manassas, Va., USA) and maintained as a monolayer culture in Eagle's minimum essential medium (MEM, Invitrogen, Gaithersburg, Md., USA) supplemented with 10% fetal bovine serum at 37 C and 5% CO2. All treatments were done in triplicate samples on 96-well plates. VX2 cells were maintained as described in Geschwind et al., Cancer Res., 62:3909-3913 (2002).
The efficacy of 3-BrPA in the treatment of lung cancer cells was tested using the non-small cell lung cancer (NSCLC) cell line NCI-H1299. As described above, the cell line was grown as a monolayer in MEM (Invitrogen) supplemented with 10% fetal bovine serum (HyClone) at 37 C.° and 5% CO2, and all treatments were done in triplicate samples on 96-well plates.
The EC50 of 3-BrPA for H1299 cells lies between 0.08 and 0.09 mM. […] Therefore, considering that oral administration of 3-BrPA buffered in NaHCO3 is effective in prolonging survival in liver cancer models (Example 2), it is probable that oral administration of 3-BrPA buffered in NaHCO3 would also be effective in the treatment of lung cancer.

Setting [1] is: MTD of 3-BrPA buffered with 2.75 ml of NaHCO3.
Where [2] appears, read: MTD of 3-BrPA buffered with NaHCO3.

In the series with VX2 tumor (5 mg of 3-BrPA in 2.75 ml of PBS orally once a day), `O=C(O)C(=O)CBr` [3-BrPA, 3-bromopyruvate] registered a Median survival of 66 days. Moreover, the Survival with VX2 tumor (10 mg of 3-BrPA in 2.75 ml of PBS orally once a day) is recorded as 70 days. The Median survival in the series on VX2 tumor (50 mg of 3-BrPA in 2.75 ml of NaHCO3 (1M) orally once a day) came out at 60 days. Moreover, in the series on VX2 tumor (50 mg of 3-BrPA in 2.75 ml of PBS orally), the “Time to death after first oral dose (all animals expired)” value was ≤ 24 h. The “Animal survival, Kaplan Meier analysis” value in the series on VX2 tumor (500 mg in 2.75 ml of NaHCO3 (1 M, resulting in pH 4), orally once a day, compared to groups 2, 3 and 4) is “significant survival benefit”. In the series on VX2 tumor (500 mg of 3-BrPA in 2.75 ml of NaHCO3 orally once a day), the Median survival time was 100 days. Besides, the “Outcome of unbuffered 3-BrPA” value in the series on VX2 tumor (500 mg, unbuffered, pH<2, oral) is given as “immediate death”. Also, the “Time to death (all animals expired)” value with VX2 tumor (1000 mg of 3-BrPA in 2.75 ml of NaHCO3 orally) was ≤ 24 h. In addition, in the series on VX2 tumor (setting [1]), the “Survival longer than rabbits that did not receive 3-BrPA” value came to 79% and the “Survival longer than rabbits treated with the MTD of 3-BrPA buffered with PBS” value turned out to be 42%. Also, in the series with VX2 tumor (setting [2]), the Cause of death result is reported as “died of aspiration”, the “Mean liver tumor size” value is < 0.5 cm and the Metastases on pathology entry is “no metastases”. Besides, the “Mean liver tumor size” value in the series with VX2 tumor (all other groups) was > 8 cm. Also, the Metastases on pathology result with VX2 tumor (all other rabbits) is listed as “widespread metastases”. The “Increase of MTD compared to the MTD of 3-BrPA in PBS” value with VX2 tumor (buffered with 2.75 ml of 1M NaHCO3) was 50 fold. In addition, in the series on VX2 tumor (buffered with 2.75 ml of 1M NaHCO3, oral), the “Maximum tolerated dose (MTD)” value amounted to 500 mg. In addition, the “Effectiveness as a cancer therapeutic” value with VX2 tumor (buffering conditions that resulted in a pH>6 (500 mg in 2 M NaHCO3, pH 7)) is “less effective”. In addition, the “Maximum tolerated dose (MTD)” value with VX2 tumor (dissolved in 2.75 ml of PBS, oral) is reported as 10 mg. Moreover, in the series with H1299 cells (0.1 mM, within 3 hours), the Cells died entry is listed as “more than 80%”. The Cell death with H1299 cells (0.2 mM) is given as 100%. In the series with H1299 cells (H1299), the “EC50 compared with EC50 of 3-BrPA for VX2 liver cancer cells” value is given as “lower”; the “Viability (trypan blue)” value is “dose and time dependent decrease in viability”.
